Data as given in patent publication US20070213291A1, “Therapeutically useful synthetic oligonucleotides” (priority 1999, published 2007).

Legend:
[1] = test system: Jurkat human leukemia T cells; test: Inhibition of Jurkat human leukemia T cell proliferation (MTT reduction); format: cell-based; settings: for % INHIBITION of Jurkat human leukemia T cell proliferation: 100 μg/ml sequence, 48 h, 2.5×10^5 cells/ml; for proliferation, cell cycle arrest and apoptosis of Jurkat T cells (summary in words): M. phlei murA derived sequences
In short: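 Jurkat cells at 2.5×10^5 cells/ml exposed to 100 μg/ml of 2–45-base A/C/G/T sequences (0 μg/ml control) for 48 h, 37° C, 5% CO2. Viability by MTT reduction read at 570 nm.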

[2] = test system: Jurkat human leukemia T cells; test: Cell cycle stage in Jurkat cells (propidium iodide flow cytometry); format: cell-based; settings: Jurkat
In short: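 Exponentially growing Jurkat cells were exposed for 24 h to 2–45-base A/C/G/T oligonucleotides, or at 1×10^6 cells/ml to 6-base GT and AC strands, alone (heated 10 min, 65 °C) or hybridized 1:1. Detergent-, trypsin-, RNase- and spermine-treated nuclei were propidium iodide-stained and scored for G0/G1, early/mid/late S and G2/M by doublet-discriminating flow cytometry.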

[3] = test system: Jurkat human leukemia T cells; test: Apoptosis by phosphatidylserine/annexin V-FITC flow cytometry; format: cell-based; settings: M. phlei murA derived sequences
Procedure: (§1) The redistribution of phosphatidylserine in the plasma membrane during apoptosis was measured by flow cytometry using FITC-conjugated annexin V (BD Pharmingen, San Diego, Calif.). NuMA release into the supernatant was determined using a commercial ELISA kit (Oncogen/Calbiochem, Cambridge, Mass.).
Jurkat human leukemia T cells were incubated with 50 μM of 3, 4, 5, 6 and 7 GT base sequences, a 5 base ACGT sequence, 6 base AG, GG, AGT and CGT sequences and a 7 base GG sequence. […]
Jurkat human leukemia T cells were incubated with GT-rich or AC-rich sequences derived from the murA gene of Mycobacterium phlei (GenBank: Accession Number X99776). Inhibition of proliferation was measured by the reduction of MTT as in Example 3, cell cycle arrest was detected by flow cytometry using propidium iodide as in Example 21 and apoptosis was evaluated by flow cytometry using annexin-V-FITC as in Example 23.

caspase 3 [4] = test: Active caspase 3 by FITC-conjugated antibody flow cytometry; format: cell-based, human; settings: Jurkat, 72 h, 100 μg/ml, cytometric (FIG. 2A)
Procedure: (§2) To determine caspase activation, control and treated cells are washed, fixed, permeabilized and incubated with an FITC-conjugated antibody that recognizes the active form of the caspase (Pharmingen, San Diego, Calif.) using the conditions recommended by the manufacturer. Fluorescence associated with active caspase 3 is analyzed by flow cytometry on a FACSCALIBUR using the program CellQUEST (Becton Dickinson). Alternatively, caspase activation is determined colorimetrically using an assay based on the cleavage of a caspase-specific peptide conjugated to the color reporter molecule p-nitroanilide, which can be quantitated spectrophotometrically at a wavelength of 405 nm.
(§3) Jurkat T cell leukemia cells were incubated for 72 h with 33 base GT SEQ ID NO:66; 11 base GT SEQ ID NO:81 (bases 1-11 of GT SEQ ID NO:66), 11 base GT SEQ ID NO:82 (bases 12-22 of GT SEQ ID NO:66), 11 base GT SEQ ID NO:83 (bases 23-33 of GT SEQ ID NO:66) and 15 base ACG SEQ ID NO:67. Active caspase 3 (17-22 kDa) was determined using FITC conjugated antibody (Clone: C92-605) as in Example 28.

caspase 3 [5] = test: Caspase 3 activation, colorimetric (p-nitroanilide peptide cleavage); format: cell-based, human; settings: Jurkat, 72 h, 100 μg/ml
Procedure: as §2, §3
Caspase 3 activation also was determined colorimetrically as in Example 28.
Jurkat T cell leukemia cells were incubated for 72 h with 6 base GT SEQ ID NO:25. Caspase 3 activation was determined colorimetrically as in Example 28.

[6] = test system: MCF-7 human breast cancer cells; test: Inhibition of MCF-7 cell proliferation (MTT); format: cell-based
In short: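 Cells at 2.5×10^5 cells/ml (GT 3- and 6-base series at 5×10^5 cells/ml) treated with 100 μg/ml of 2-45-base oligonucleotide sequences versus untreated control for 48 h at 37 °C, 5% CO2. Proliferation read by MTT reduction at 570 nm.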

[7] = test system: EL-4 murine T lymphoma cells; test: Inhibition of EL-4 cell proliferation (MTT); format: cell-based; settings: 100 μg/ml, 48 h
Procedure: (§4) Cells were seeded in 6 (1 ml/well), 24 (0.5 ml/well) or 96 (0.1 ml/well) well flat-bottom microplates and were maintained at 37° C. in a 5% CO2 atmosphere. Unless stated otherwise, 2.5×10^5 cells/ml were incubated with 0 μg/ml (control) and 100 μg/ml (treated) of 2 to 45 base sequences containing A, C, G and T for 48 h.
(§5) Cell proliferation was measured using dimethylthiazol-diphenyl-tetrazolium (MTT) reduction (Mosman et al. J. Immunol. Methods 65:55, 1983). MTT was measured at a wavelength of 570 nm using a multiplate spectrophotometer reader (ELX800, Bio-TEK Instruments Inc., Winooski, Vt.).
EL-4 murine lymphoma T cells are a suspension tumor model. EL-4 murine lymphoma T cells were incubated with 6, 18, 27 and 33 base GT sequences and with a 15 base ACG sequence (Table 18).

[8] = test system: D-17 canine osteosarcoma cells; test: Inhibition of D-17 cell proliferation (MTT); format: cell-based; settings: 100 μg/ml, 48 h, 5×10^5 cells/ml
Procedure: as §4, §5
(§6) D-17 canine osteosarcoma cells and CF-51 canine mammary gland cancer cells are solid tumor models. D-17 canine osteosarcoma cells (5×10^5 cells/ml) (Table 20) and CF-51 canine mammary gland cancer cells (5×10^5 cells/ml) (Table 21) were incubated with 6, 9, 17, 27 and 33 base GT-sequences and with a 15 base ACG sequence.

[9] = test system: CF-51 canine mammary gland cancer cells; test: Inhibition of CF-51 cell proliferation (MTT); format: cell-based; settings: 100 μg/ml, 48 h, 5×10^5 cells/ml
Procedure: as §4, §5, §6

[10] = test system: Jurkat human leukemia T cells; test: NuMA release into supernatant (ELISA); format: cell-based; settings: Jurkat 1×10^6/ml
Procedure: as §1
Jurkat human leukemia T cells were incubated with 50 μM of 3, 4, 5, 6 and 7 GT base sequences, a 5 base ACGT sequence, 6 base AG, GG, AGT and CGT sequences and a 7 base GG sequence.
Jurkat human leukemia T cells (1×10^6/ml) were incubated with 6 and 27 GT base sequences (Table 32). NuMA was determined as in Example 23.
Jurkat human cell leukemia T cells were incubated for 24 h with 6 base GT SEQ ID NO:25, complementary 6 base AC SEQ ID NO:79, and 6 base GT SEQ ID NO:25+6 base AC SEQ ID NO:79. GT SEQ ID NO:25 and AC SEQ ID NO:79 were hybridized by mixing the sequences (1:1) and heating for 10 minutes at 65° C. As controls, GT SEQ ID NO:25 and AC SEQ ID NO:79 were heated for 10 minutes at 65° C. (Table 33). Apoptosis was evaluated as in Example 23.

[11] = test system: EL-4 murine T lymphoma cells; test: EL-4 murine T lymphoma in C57/BL6 mice; format: in vivo; settings: after 4 weeks of treatment, compared with group 1 (saline)
Procedure: EL-4 murine T lymphoma cells are implanted into C57/BL6 mice. The mice are divided into 6 groups of 10 mice. On day 0, group 1 mice receive saline, group 2 mice receive 3 base GT SEQ ID NO:8, group 3 mice receive 6 base SEQ ID NO:25, group 4 mice receive 6 base AG SEQ ID NO:45, group 5 mice receive 18 base GT SEQ ID NO: 18 and group 6 mice receive 27 base GT SEQ ID NO:1. After 4 weeks of treatment, the mice are sacrificed and tumor mass is determined.

[12] = 5-fluorouracil 0.1 μg/ml, alone or with sequence at 1.0 μg/ml
[13] = 5-fluorouracil 1.0 μg/ml, alone or with sequence at 1.0 μg/ml
[14] = 5-fluorouracil 10.0 μg/ml, alone or with sequence at 1.0 μg/ml
[15] = sequence at 1.0 μg/ml, 5-fluorouracil 0.0 μg/ml

For “GGTTTTGTTTG (unmodified DNA) [SEQ ID NO:82]”, the “% INHIBITION of Jurkat human leukemia T cell proliferation” value [1] was 20%, the “proliferation, cell cycle arrest and apoptosis of Jurkat T cells (summary in words)” value (from here on “proliferation … (summary in words)”) [1] was “inhibited proliferation of, induced cell cycle arrest in and induced apoptosis of Jurkat T cells” and the cell cycle arrest ([2]; M. phlei murA derived sequences) was “End SE”. The “% at cells in apoptosis” value [3] was 25%, the “processing of inactive pro-caspase 3 to active caspase 3” value (“processing” for short) (caspase 3 [4]) was “induced processing of inactive pro-caspase 3 to active caspase 3” and the “caspase 3 activity greater than in control cells” value (“caspase 3 activity greater than” below) (caspase 3 [5]) was 100%.
In the case of “GTGTGTGTGTGTGTGTGTGTGTGTGTG [SEQ ID NO:1] (chemistry not given here)”, the “% INHIBITION of Jurkat human leukemia T cell proliferation” value [1] is reported as 51%, the “% INHIBITION of Jurkat proliferation, 5-Fluorouracil 0.1 μg/ml” value [1, 12] is reported as 15% and the “% INHIBITION of Jurkat proliferation, 5-Fluorouracil 1.0 μg/ml” value [1, 13] is reported as 25%. The “% INHIBITION of Jurkat proliferation, 5-Fluorouracil 10.0 μg/ml” value [1, 14] was 41%, the “% INHIBITION of Jurkat proliferation, Cisplatin 0.1 μg/ml” value ([1]; cisplatin 0.1 μg/ml, alone or with sequence at 1.0 μg/ml) was 18% and the “% INHIBITION of Jurkat proliferation, Cisplatin 1.0 μg/ml” value ([1]; cisplatin 1.0 μg/ml, alone or with sequence at 1.0 μg/ml) was 35%. The “% INHIBITION of Jurkat proliferation, Cisplatin 10.0 μg/ml” value ([1]; cisplatin 10.0 μg/ml, alone or with sequence at 1.0 μg/ml) was 76%, the “potentiation of antineoplastic effect of 5-fluorouracil on Jurkat T cell proliferation” value ([1]; sequence 1.0 μg/ml, 0.1 and 1.0 μg/ml 5-fluorouracil) was “potentiated” and the “% INHIBITION of Jurkat proliferation, 5-Fluorouracil 0.0 μg/ml” value [1, 15] was 3%. For the same sequence, the “% INHIBITION of Jurkat proliferation, Cisplatin 0.0 μg/ml” value ([1]; sequence at 1.0 μg/ml, cisplatin 0.0 μg/ml) was 3%, the “% INHIBITION of MCF-7 proliferation, 5-Fluorouracil 0.1 μg/ml” value [6, 12] was 24% and the “% INHIBITION of MCF-7 proliferation, 5-Fluorouracil 1.0 μg/ml” value [6, 13] was 35%. For the same sequence, the “% INHIBITION of MCF-7 proliferation, 5-Fluorouracil 10.0 μg/ml” value [6, 14] was 33%, the “potentiation of antineoplastic effect of 5-fluorouracil on MCF-7 cell proliferation” value ([6]; sequence 1.0 μg/ml, 0.1 μg/ml 5-fluorouracil) was “did not potentiate” and the “potentiation of antineoplastic effect of tamoxifen on MCF-7 cell proliferation” value ([6]; sequence 1.0 μg/ml, 0.1 μg/ml tamoxifen) was “did not potentiate”. For the same sequence, the “% INHIBITION of MCF-7 proliferation, 5-Fluorouracil 0.0 μg/ml” value [6, 15] was 8%, the “% INHIBITION of MCF-7 proliferation, Tamoxifen 0.0 μg/ml” value ([6]; sequence at 1.0 μg/ml, tamoxifen 0.0 μg/ml) was 8% and the “% INHIBITION of MCF-7 proliferation, Tamoxifen 0.1 μg/ml” value ([6]; tamoxifen 0.1 μg/ml, alone or with sequence at 1.0 μg/ml) was 19%. For the same sequence, the “% INHIBITION of MCF-7 proliferation, Tamoxifen 1.0 μg/ml” value ([6]; tamoxifen 1.0 μg/ml, alone or with sequence at 1.0 μg/ml) was 24%, the “% INHIBITION of MCF-7 proliferation, Tamoxifen 10.0 μg/ml” value ([6]; tamoxifen 10.0 μg/ml, alone or with sequence at 1.0 μg/ml) was 20% and the “% INHIBITION of EL-4 murine T lymphoma cell proliferation” value [7] was 1%. The “% INHIBITION of D-17 canine osteosarcoma cell proliferation” value [8] was 23%, the “% INHIBITION of CF-51 canine mammary gland cancer cell proliferation” value [9] was 23% and the “% of cells in phase: G0/G1” value ([2]; 24 h, 100 μg/ml) was 40.6%. For the same sequence, the “% of cells in phase: G2/M” value ([2]; 24 h, 100 μg/ml) was 0.3%, the “% of cells in phase: SE” value ([2]; 24 h, 100 μg/ml) was 35.6% and the “% of cells in phase: SL” value ([2]; 24 h, 100 μg/ml) was 9.3%. For the same sequence, the “% of cells in phase: SM” value ([2]; 24 h, 100 μg/ml) was 14.2%, the “Arrest (cell cycle)” value ([2]; 24 h, 100 μg/ml) was “End SE” and the “% NUMA RELEASED” value [10] was 22%. The tumor mass [11] was “less tumor mass than group 1 mice”.
In the case of “GTGTGTTTGGT (unmodified DNA) [SEQ ID NO:81]”, the “% INHIBITION of Jurkat human leukemia T cell proliferation” value [1] is reported as 22%, the “proliferation … (summary in words)” value [1] is reported as “inhibited proliferation of, induced cell cycle arrest in and induced apoptosis of Jurkat T cells” and the “% at cells in apoptosis” value [3] is reported as 23%. The “processing” value (caspase 3 [4]) was “induced processing of inactive pro-caspase 3 to active caspase 3” and the “caspase 3 activity greater than” value (caspase 3 [5]) was 77%.
In the case of “GTGTGTTTGGTGGTTTTGTTTGTTGTTTTTTTG (DNA, backbone not given here) [SEQ ID NO:66]”, the “% INHIBITION of EL-4 murine T lymphoma cell proliferation” value [7] is reported as −1%, the “% INHIBITION of D-17 canine osteosarcoma cell proliferation” value [8] is reported as 23% and the “% INHIBITION of CF-51 canine mammary gland cancer cell proliferation” value [9] is reported as 23%. For the same sequence, the “processing” value (caspase 3 [4]) was “induced processing of inactive pro-caspase 3 to active caspase 3” and the “caspase 3 activity greater than” value (caspase 3 [5]) was 105%.
With “TTGTTTTTTTTG (unmodified DNA) [SEQ ID NO:83]” the “% INHIBITION of Jurkat human leukemia T cell proliferation” value [1] was 21%, the “proliferation … (summary in words)” value [1] was “inhibited proliferation of, induced cell cycle arrest in and induced apoptosis of Jurkat T cells” and the “% at cells in apoptosis” value [3] was 16%. For the same sequence, the “processing” value (caspase 3 [4]) was “induced processing of inactive pro-caspase 3 to active caspase 3” and the “caspase 3 activity greater than” value (caspase 3 [5]) was 60%.
